Experimental data reported in US8471005B2 (Cephalon, Inc., priority 2008, dated 2013).
Read-outs that look alike come from different tables or passages of the source.

Assays:
ALK = molecular target: T1, ALK (Homo sapiens, UniProt Q9UM73); assay: ALK Kinase Assay (ELISA/TRF, PLC-γ substrate); assay type: biochemical; details: read-out: ALK Potency
T1 construct: host or cells: baculovirus expression system
Method in brief: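 First, plates are coated with substrate (phospholipase C-γ, 10 μg/mL, TBS). Next, 30 ng/ml ALK initiates phosphorylation for 15 min at 37° C. Then Eu-N1 PT66 antibody is added for detection, and a nonlinear dose-response fit of percent inhibition yields IC50.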

JAK2 = molecular target: T2, JAK2 (Homo sapiens, UniProt O60674); assay: Recombinant Human JAK2 Kinase Assay (TRF); assay type: biochemical; details: read-out: JAK2 Potency
T2 construct: host or cells: baculovirus expression system
Method in brief: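 TRF read-out: Eu-N1 PY100 anti-phosphotyrosine antibody detects product. Enzyme is baculovirus-expressed JAK2 at 15 ng/ml; substrate is a biotinyl 15-mer peptide bound to Neutravidin-coated wells. Buffer 20 mM HEPES pH 7.2, 0.2 μM ATP, 1 mM MnCl2, 0.1% BSA, 2.5% DMSO final; 20 min, RT.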

[1] = ALK kinase inhibition, 1 μM ATP
[2] = JAK2 kinase inhibition, 0.2 μM ATP

T1 sequence (Q9UM73 19-1620): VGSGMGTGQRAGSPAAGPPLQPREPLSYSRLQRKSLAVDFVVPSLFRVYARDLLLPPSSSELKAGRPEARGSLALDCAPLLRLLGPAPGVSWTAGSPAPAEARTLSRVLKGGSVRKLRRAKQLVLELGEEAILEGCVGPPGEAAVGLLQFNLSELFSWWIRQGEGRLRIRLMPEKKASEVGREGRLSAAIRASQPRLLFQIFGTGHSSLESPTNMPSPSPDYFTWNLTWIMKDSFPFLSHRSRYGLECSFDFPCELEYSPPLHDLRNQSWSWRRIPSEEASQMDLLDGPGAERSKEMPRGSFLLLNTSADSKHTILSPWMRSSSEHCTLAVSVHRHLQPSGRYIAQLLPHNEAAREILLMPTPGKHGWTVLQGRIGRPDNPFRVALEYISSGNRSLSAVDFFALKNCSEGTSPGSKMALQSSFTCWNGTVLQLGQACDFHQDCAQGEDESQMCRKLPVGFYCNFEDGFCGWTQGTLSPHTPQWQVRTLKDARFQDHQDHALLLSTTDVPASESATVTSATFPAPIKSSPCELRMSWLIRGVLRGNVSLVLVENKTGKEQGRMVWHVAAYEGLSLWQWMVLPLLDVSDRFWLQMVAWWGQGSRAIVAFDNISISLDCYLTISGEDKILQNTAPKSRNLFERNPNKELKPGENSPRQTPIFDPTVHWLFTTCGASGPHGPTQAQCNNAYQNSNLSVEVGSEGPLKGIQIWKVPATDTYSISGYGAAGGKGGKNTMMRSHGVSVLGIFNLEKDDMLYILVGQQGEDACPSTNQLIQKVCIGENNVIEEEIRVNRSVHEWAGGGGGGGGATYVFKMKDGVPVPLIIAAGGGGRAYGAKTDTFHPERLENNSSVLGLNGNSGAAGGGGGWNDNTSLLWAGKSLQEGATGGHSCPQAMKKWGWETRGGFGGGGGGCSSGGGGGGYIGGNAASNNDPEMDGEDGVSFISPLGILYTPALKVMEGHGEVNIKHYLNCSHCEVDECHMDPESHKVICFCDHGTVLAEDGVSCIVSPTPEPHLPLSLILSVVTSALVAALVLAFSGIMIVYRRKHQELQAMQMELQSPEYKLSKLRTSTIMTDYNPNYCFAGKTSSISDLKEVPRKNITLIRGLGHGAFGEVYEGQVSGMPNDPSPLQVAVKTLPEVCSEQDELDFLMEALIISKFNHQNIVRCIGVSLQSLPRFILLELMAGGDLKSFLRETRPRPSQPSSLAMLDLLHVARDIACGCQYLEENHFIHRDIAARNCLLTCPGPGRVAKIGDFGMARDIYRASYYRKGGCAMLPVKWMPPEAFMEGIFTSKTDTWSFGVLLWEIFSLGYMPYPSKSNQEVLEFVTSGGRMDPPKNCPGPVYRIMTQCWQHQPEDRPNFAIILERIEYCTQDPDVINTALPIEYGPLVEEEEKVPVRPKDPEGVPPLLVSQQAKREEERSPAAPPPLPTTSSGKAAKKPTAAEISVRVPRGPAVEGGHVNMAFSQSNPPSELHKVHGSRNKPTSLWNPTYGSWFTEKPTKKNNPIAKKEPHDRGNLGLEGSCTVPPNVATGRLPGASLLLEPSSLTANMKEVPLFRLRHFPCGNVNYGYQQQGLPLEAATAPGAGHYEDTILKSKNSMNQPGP
T2 sequence (O60674 whole entry): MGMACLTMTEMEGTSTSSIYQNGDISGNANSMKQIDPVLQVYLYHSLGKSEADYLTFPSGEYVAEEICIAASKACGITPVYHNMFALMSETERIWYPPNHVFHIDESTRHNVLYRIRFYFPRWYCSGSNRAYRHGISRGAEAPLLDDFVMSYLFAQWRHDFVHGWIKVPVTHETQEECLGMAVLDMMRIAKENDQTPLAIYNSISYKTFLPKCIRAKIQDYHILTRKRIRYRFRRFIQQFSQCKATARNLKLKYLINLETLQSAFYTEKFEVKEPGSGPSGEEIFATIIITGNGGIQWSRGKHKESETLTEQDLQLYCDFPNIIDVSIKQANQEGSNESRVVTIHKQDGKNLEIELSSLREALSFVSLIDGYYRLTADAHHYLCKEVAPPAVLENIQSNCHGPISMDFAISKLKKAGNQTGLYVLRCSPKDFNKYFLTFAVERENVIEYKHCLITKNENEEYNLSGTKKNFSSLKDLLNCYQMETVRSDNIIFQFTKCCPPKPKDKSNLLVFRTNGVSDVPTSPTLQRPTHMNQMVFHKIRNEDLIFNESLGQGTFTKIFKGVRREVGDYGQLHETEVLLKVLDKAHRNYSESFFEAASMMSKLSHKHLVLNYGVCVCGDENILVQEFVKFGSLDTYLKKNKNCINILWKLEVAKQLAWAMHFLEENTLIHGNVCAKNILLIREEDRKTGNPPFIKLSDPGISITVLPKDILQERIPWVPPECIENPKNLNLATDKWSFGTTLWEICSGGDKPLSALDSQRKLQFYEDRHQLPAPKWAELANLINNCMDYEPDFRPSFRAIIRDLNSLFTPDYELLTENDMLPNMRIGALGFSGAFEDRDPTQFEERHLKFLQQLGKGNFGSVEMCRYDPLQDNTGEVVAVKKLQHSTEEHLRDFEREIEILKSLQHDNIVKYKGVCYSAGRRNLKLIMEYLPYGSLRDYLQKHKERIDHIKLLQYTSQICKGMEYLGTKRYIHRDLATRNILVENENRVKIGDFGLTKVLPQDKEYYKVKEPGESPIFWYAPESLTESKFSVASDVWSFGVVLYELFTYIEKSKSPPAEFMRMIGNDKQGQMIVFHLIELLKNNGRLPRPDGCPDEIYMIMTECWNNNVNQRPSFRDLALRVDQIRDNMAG

SMILES | IC50 (ALK; [1]) | IC50 (JAK2; [2]) | IC50 (ALK; ALK Kinase Inhibition) | IC50 (JAK2; JAK2 Kinase Inhibition)
CN1CCN(CC2CCCN(c3ccc(Nc4ncc5ccc(-c6ccc(S(C)(=O)=O)cc6)n5n4)cc3)C2)CC1 (stereo not drawn) [Example 457, [7-(4-Methanesulfonyl-phenyl)-pyrrolo[2,1-f][1,2,4]triazin-2-yl]-{4-[3-(4-methyl-piperazin-1-ylmethyl)-piperidin-1-yl]-phenyl}-amine] | – | – | 100 to 1000 nM | < 100 nM
CN1CCN(c2ccc(Nc3ncc4c(-c5ccc(F)cc5)ccn4n3)cc2)CC1 [Example 726, [5-(4-Fluoro-phenyl)-pyrrolo[2,1-f][1,2,4]triazin-2-yl]-[4-(4-methyl-piperazin-1-yl)-phenyl]-amine] | 1000 to 10000 nM | > 10000 nM | – | –
COc1cc(N2CCCN(C3CCN(C)CC3)CC2)ccc1Nc1ncc2ccc(-c3ccccc3OC)n2n1 [Example 789, {2-Methoxy-4-[4-(1-methyl-piperidin-4-yl)-[1,4]diazepan-1-yl]-phenyl}-[7-(2-methoxy-phenyl)-pyrrolo[2,1-f][1,2,4]triazin-2-yl]-amine] | < 100 nM | 100 to 1000 nM | – | –
COc1cc(C2(O)CCN(C(=O)OC(C)(C)C)CC2)ccc1Nc1ncc2ccc(-c3ccccc3N(C)S(C)(=O)=O)n2n1 [Example 741, 4-Hydroxy-4-(4-{7-[2-(methanesulfonyl-methyl-amino)-phenyl]-pyrrolo[2,1-f][1,2,4]triazin-2-ylamino}-3-methoxy-phenyl)-piperidine-1-carboxylic acid tert-butyl ester] | 100 to 1000 nM | 100 to 1000 nM | – | –
CN1CCN(c2ccc(Nc3ncc4ccc(-c5ccc(C(=O)N6CCOCC6)cc5)n4n3)cc2)CC1 [Example 19, (4-{2-[4-(4-Methyl-piperazin-1-yl)-phenylamino]-pyrrolo[2,1-f][1,2,4]triazin-7-yl}-phenyl)-morpholin-4-yl-methanone] | – | – | 100 to 1000 nM | < 100 nM
COc1cc(N2CCC(N3CCCC3)CC2)ccc1Nc1ncc2ccc(-c3ccccc3OC)n2n1 [Example 481, [7-(2-Methoxy-phenyl)-pyrrolo[2,1-f][1,2,4]triazin-2-yl]-[2-methoxy-4-(4-pyrrolidin-1-yl-piperidin-1-yl)-phenyl]-amine] | < 100 nM | 100 to 1000 nM | – | –
COc1cc(N2CCCN(C[C@@H](C)O)CC2)ccc1Nc1ncc2ccc(-c3ccccc3N(C)S(C)(=O)=O)n2n1 [Example 772, N-[2-(2-{4-[4-((R)-2-Hydroxy-propyl)-[1,4]diazepan-1-yl]-2-methoxy-phenylamino}-pyrrolo[2,1-f][1,2,4]triazin-7-yl)-phenyl]-N-methyl-methanesulfonamide] | < 100 nM | 100 to 1000 nM | – | –
COc1cc(N2CCC[C@H](C(=O)N3CCN(C)CC3)C2)ccc1Nc1ncc2ccc(-c3ccccc3OC)n2n1 [Example 461, ((S)-1-{3-Methoxy-4-[7-(2-methoxy-phenyl)-pyrrolo[2,1-f][1,2,4]triazin-2-ylamino]-phenyl}-piperidin-3-yl)-(4-methyl-piperazin-1-yl)-methanone] | – | – | < 100 nM | 100 to 1000 nM
CN1CCN(C2CCCN(c3ccc(Nc4ncc5ccc(-c6cccnc6)n5n4)cc3)C2)CC1 (stereo not drawn) [Example 352, {4-[3-(4-Methyl-piperazin-1-yl)-piperidin-1-yl]-phenyl}-(7-pyridin-3-yl-pyrrolo[2,1-f][1,2,4]triazin-2-yl)-amine] | – | – | 100 to 1000 nM | < 100 nM
Clc1cccc(-c2ccc3cnc(Nc4ccc(N5CCCC5)cc4)nn23)c1 [Example 167, [7-(3-Chloro-phenyl)-pyrrolo[2,1-f][1,2,4]triazin-2-yl]-(4-pyrrolidin-1-yl-phenyl)-amine] | – | – | 1000 to 10000 nM | < 100 nM
CCN1CCOC(c2ccc(Nc3ncc4ccc(-c5cccc(S(=O)(=O)NC(C)(C)C)c5)n4n3)cc2)C1 (stereo not drawn) [Example 653, N-tert-Butyl-3-{2-[4-(4-ethyl-morpholin-2-yl)-phenylamino]-pyrrolo[2,1-f][1,2,4]triazin-7-yl}benzenesulfonamide] | 100 to 1000 nM | < 100 nM | – | –

Next, values leading:

IC50 (ALK; [1]) | IC50 (JAK2; [2]) | IC50 (ALK; ALK Kinase Inhibition) | IC50 (JAK2; JAK2 Kinase Inhibition) | SMILES
> 10000 nM | < 100 nM | – | – | COc1ccc(-c2ccc3cnc(Nc4ccn(CC(=O)N5CCOCC5)n4)nn23)cn1 [Example 1112, 2-{3-[7-(6-Methoxy-pyridin-3-yl)-pyrrolo[2,1-f][1,2,4]triazin-2-ylamino]-pyrazol-1-yl}-1-morpholin-4-yl-ethanone]
– | – | < 100 nM | < 100 nM | COc1cc(N2CCC(C)(N3CCOCC3)CC2)ccc1Nc1ncc2ccc(-c3ccccc3OC)n2n1 [Example 1467]
< 100 nM | < 100 nM | – | – | CCN1CCOC(c2ccc(Nc3ncc4ccc(-c5ccccc5N(C)S(C)(=O)=O)n4n3)cc2)C1 (stereo not drawn) [Example 995, N-(2-{2-[4-(4-Ethyl-morpholin-2-yl)-phenylamino]-pyrrolo[2,1-f][1,2,4]triazin-7-yl}-phenyl)-N-methyl-methanesulfonamide]
1000 to 10000 nM | 100 to 1000 nM | – | – | CN(C)Cc1ccccc1-c1ccc2cnc(Nc3ccc(N4CCOCC4)cc3)nn12 [Example 1035, [7-(2-Dimethylaminomethyl-phenyl)-pyrrolo[2,1-f][1,2,4]triazin-2-yl]-(4-morpholin-4-yl-phenyl)-amine]
100 to 1000 nM | < 100 nM | – | – | CN1CCC(c2ccc(Nc3ncc4ccc(-c5cccc(S(=O)(=O)N6CCCCC6)c5)n4n3)cc2)CC1 [Example 905, [4-(1-Methyl-piperidin-4-yl)-phenyl]-{7-[3-(piperidine-1-sulfonyl)-phenyl]-pyrrolo[2,1-f][1,2,4]triazin-2-yl}-amine]
100 to 1000 nM | < 100 nM | – | – | CN(c1ccccc1-c1ccc2cnc(Nc3ccc4nc(C(C)(C)C)[nH]c4c3)nn12)S(C)(=O)=O [Example 1341, N-{2-[2-(2-tert-Butyl-3H-benzimidazol-5-ylamino)-pyrrolo[2,1-f][1,2,4]triazin-7-yl]-phenyl}-N-methyl-methanesulfonamide]
100 to 1000 nM | < 100 nM | – | – | CC(C)(C)NS(=O)(=O)c1cccc(-c2ccc3cnc(Nc4ccc5cn(CCN6CCOCC6)nc5c4)nn23)c1 [Example 1344, N-tert-Butyl-3-{2-[2-(2-morpholin-4-yl-ethyl)-2H-indazol-6-ylamino]-pyrrolo[2,1-f][1,2,4]triazin-7-yl}-benzenesulfonamide]
< 100 nM | 100 to 1000 nM | – | – | COc1cc(C2CCN(CC(N)=O)CC2)ccc1Nc1ncc2c(C)cc(-c3ccccc3N(C)S(C)(=O)=O)n2n1 [Example 1255, 2-[4-(4-{7-[2-(Methanesulfonyl-methyl-amino)-phenyl]-5-methyl-pyrrolo[2,1-f][1,2,4]triazin-2-ylamino}-3-methoxy-phenyl)-piperidin-1-yl]-acetamide]
– | – | 100 to 1000 nM | < 100 nM | COc1ccccc1-c1ccc2cnc(Nc3ccc(N4CCN(CC(N)=O)CC4)c(F)c3)nn12 [Example 1416, 2-(4-{2-Fluoro-4-[7-(2-methoxy-phenyl)-pyrrolo[2,1-f][1,2,4]triazin-2-ylamino]-phenyl}-piperazin-1-yl)-acetamide]
100 to 1000 nM | < 100 nM | – | – | CN1CCN(c2ccc(Nc3ncc4ccc(-c5cccc(S(C)(=O)=O)c5)n4n3)cn2)CC1 [Example 1123, [7-(3-Methanesulfonyl-phenyl)-pyrrolo[2,1-f][1,2,4]triazin-2-yl]-[6-(4-methyl-piperazin-1-yl)-pyridin-3-yl]-amine]
